Data set [1] is described as follows: Solubility assay by visual observation and manual dilution. In kind it is physicochemical. The conditions noted are these: thermodynamic from solid, room temperature. Here is the method: Solubility assay was performed by visual observation and manual dilution at room temperature. […] The total amount of the solvent was recorded to calculate the solubility for each solvent.

Data set [2] can be described thus: Crystalline form change on storage at room temperature (XRPD). The data set is classed as physicochemical. As for the experimental part:
The X-ray powder diffraction (XRPD) pattern was obtaine d on a Shimadzu XRD-6000 instrument.
• Tube: Cu: K-α (λ=1.54056 Å) • Generator: Voltage: 40 kV; Current: 30 mA • Scan Scope: 3˜50 deg. Scanning rate: 5 deg./min
[…] Particularly, XRPD was performed according to the method described in <Experimental Methods> 1. X-ray Powder Diffractometer (XRPD).

Setting [3] is: stored at room temperature for 2 months.
Setting [4] is: stored at room temperature for 3 months.

In brackets after ≈: the same amount, converted by molar mass.

Regarding `COC(=O)CCC/C=C(\C)[C@H]1CC[C@H]2[C@@H]3CC=C4C[C@@H](OC5C=C[C@H](OC(C)=O)[C@@H](COC(C)=O)O5)CC[C@]4(C)[C@H]3CC[C@]12C` (stereo partly drawn) [compound 1, (E)-methyl 6-((3S,8S,9S,10R,13S,14S,17R)-3-(((5S,6R)-5-acetoxy-6-(acetoxymethyl)-5,6-dihydro-2H-pyran-2-yl)oxy)-10,13-dimethyl-2,3,4,7,8,9,10,11,12,13,14,15,16,17-tetradecahydro-1H-cyclopenta[a]phenanthrene-17-yl)hept-5-enoate], the solubility (usually the concentration that dissolves in the medium under given conditions) in data set [1] (organic solvent or mixture, solvent 1,4-dioxane) is greater than 100 mg/mL; in data set [1] (organic solvent or mixture, solvent 1-butanol), 26 to 52 mg/mL (≈ 41.5 to 83 mM); in data set [1] (organic solvent or mixture, solvent 2-methyl-tetrahydrofuran) it was greater than 93.2 mg/mL; in data set [1] (organic solvent or mixture, solvent Acetone), greater than 100 mg/mL; in data set [1] (organic solvent or mixture, solvent Acetonitrile (ACN)), greater than 82.6 mg/mL; in data set [1] (organic solvent or mixture, solvent Anisole), greater than 100 mg/mL. Also, the solubility in data set [1] (organic solvent or mixture, solvent Butyl acetate) is greater than 88.6 mg/mL; in data set [1] (organic solvent or mixture, solvent Chloroform), greater than 100 mg/mL; in data set [1] (organic solvent or mixture, solvent Cyclohexane), 26 to 40 mg/mL (≈ 41.5 to 63.8 mM); in data set [1] (organic solvent or mixture, solvent Dichloromethane (DCM)), greater than 100 mg/mL; in data set [1] (organic solvent or mixture, solvent Dimethyl sulfoxide (DMSO)), 30 to 45 mg/mL (≈ 47.9 to 71.8 mM); in data set [1] (organic solvent or mixture, solvent Ethanol (EtOH)) it was 5.1 to 6.4 mg/mL (≈ 8.14 to 10.2 mM). The solubility is greater than 100 mg/mL in data set [1] (organic solvent or mixture, solvent Ethyl acetate (EtOAc)); 5.1 to 6.8 mg/mL (≈ 8.14 to 10.8 mM) in data set [1] (organic solvent or mixture, solvent Isopropanol (IPA)); greater than 100 mg/mL in data set [1] (organic solvent or mixture, solvent Isopropyl acetate (iPrOAc)); 65.2 to 130 mg/mL (≈ 104 to 208 mM) in data set [1] (organic solvent or mixture, solvent Isopropyl ether); 6.9 to 8.2 mg/mL (≈ 11 to 13.1 mM) in data set [1] (organic solvent or mixture, solvent Methanol (MeOH)); greater than 100 mg/mL in data set [1] (organic solvent or mixture, solvent Methyl ethyl ketone (MEK)). For the same compound, the solubility in data set [1] (organic solvent or mixture, solvent Methyl tert-butyl ether (MTBE)) is greater than 85.4 mg/mL; in data set [1] (organic solvent or mixture, solvent N,N-dimethylformamide (DMF)) it was greater than 100 mg/mL; in data set [1] (organic solvent or mixture, solvent Petroleum ether), 11.5 to 15.3 mg/mL (≈ 18.3 to 24.4 mM); in data set [1] (organic solvent or mixture, solvent Tetrahydrofuran (THF)) it was greater than 76 mg/mL; in data set [1] (organic solvent or mixture, solvent Toluene), greater than 83 mg/mL; in data set [1] (organic solvent or mixture, solvent n-heptane) it was 6.3 to 8.8 mg/mL (≈ 10.1 to 14 mM). The solubility in data set [1] (organic solvent or mixture, solvent n-propanol) was 26.1 to 52.1 mg/mL (≈ 41.6 to 83.1 mM); in data set [1] (solvent Water (H2O)), less than 1 mg/mL.

As to `COC(=O)CCC/C=C(\C)[C@H]1CC[C@H]2[C@@H]3CC=C4C[C@@H](O[C@@H]5C=C[C@H](OC(C)=O)[C@@H](COC(C)=O)O5)CC[C@]4(C)[C@H]3CC[C@]12C` [crystalline form IV, (E)-methyl 6-((3S,8S,9S,10R,13S,14S,17R)-3-(((2S,5S,6R)-5-acetoxy-6-(acetoxymethyl)-5,6-dihydro-2H-pyran-2-yl)oxy)-10,13-dimethyl-2,3,4,7,8,9,10,11,12,13,14,15,16,17-tetradecahydro-1H-cyclopenta[a]phenanthrene-17-yl)hept-5-enoate], the “Change of crystalline form (XRPD pattern)” value in data set [2] (setting [3]) and in data set [2] (setting [4]) was “a novel crystalline form having the XRPD pattern different from that of the crystalline form IV was confirmed” in each case.

As to `COC(=O)CCC/C=C(\C)[C@H]1CC[C@H]2[C@@H]3CC=C4C[C@@H](O[C@@H]5C=C[C@H](OC(C)=O)[C@@H](COC(C)=O)O5)CC[C@]4(C)[C@H]3CC[C@]12C` [crystalline form V, (E)-methyl 6-((3S,8S,9S,10R,13S,14S,17R)-3-(((2S,5S,6R)-5-acetoxy-6-(acetoxymethyl)-5,6-dihydro-2H-pyran-2-yl)oxy)-10,13-dimethyl-2,3,4,7,8,9,10,11,12,13,14,15,16,17-tetradecahydro-1H-cyclopenta[a]phenanthrene-17-yl)hept-5-enoate], the “Change of crystalline form (XRPD pattern)” value in data set [2] (setting [3]) and in data set [2] (setting [4]) was “a novel crystalline form having the XRPD pattern different from that of the crystalline form V was confirmed” throughout.

The values above are taken from patent US12103945B2, “Crystalline form of vascular leakage blocker compound” (Curacle Co., Ltd., priority 2020, dated 2024).
